According to US11306092B2, “Amino indole compounds useful as TLR inhibitors” (BRISTOL-MYERS SQUIBB COMPANY, priority 2017, dated 2022):
pIC50: −log10 of the molar value.

Legend:
Type in all cases: cell-based
[1] = molecular target: T1, human TLR7 (Homo sapiens, UniProt Q9NYK1); experiment: TLR7 inhibition reporter assay (HEK-Blue SEAP reporter); details: HEK-Blue cells overexpressing human TLR7; gardiquimod 7.5 μM; 22 hour incubation
T1 construct: host or cells: HEK-Blue cells
T1 sequence (Q9NYK1 27-1049): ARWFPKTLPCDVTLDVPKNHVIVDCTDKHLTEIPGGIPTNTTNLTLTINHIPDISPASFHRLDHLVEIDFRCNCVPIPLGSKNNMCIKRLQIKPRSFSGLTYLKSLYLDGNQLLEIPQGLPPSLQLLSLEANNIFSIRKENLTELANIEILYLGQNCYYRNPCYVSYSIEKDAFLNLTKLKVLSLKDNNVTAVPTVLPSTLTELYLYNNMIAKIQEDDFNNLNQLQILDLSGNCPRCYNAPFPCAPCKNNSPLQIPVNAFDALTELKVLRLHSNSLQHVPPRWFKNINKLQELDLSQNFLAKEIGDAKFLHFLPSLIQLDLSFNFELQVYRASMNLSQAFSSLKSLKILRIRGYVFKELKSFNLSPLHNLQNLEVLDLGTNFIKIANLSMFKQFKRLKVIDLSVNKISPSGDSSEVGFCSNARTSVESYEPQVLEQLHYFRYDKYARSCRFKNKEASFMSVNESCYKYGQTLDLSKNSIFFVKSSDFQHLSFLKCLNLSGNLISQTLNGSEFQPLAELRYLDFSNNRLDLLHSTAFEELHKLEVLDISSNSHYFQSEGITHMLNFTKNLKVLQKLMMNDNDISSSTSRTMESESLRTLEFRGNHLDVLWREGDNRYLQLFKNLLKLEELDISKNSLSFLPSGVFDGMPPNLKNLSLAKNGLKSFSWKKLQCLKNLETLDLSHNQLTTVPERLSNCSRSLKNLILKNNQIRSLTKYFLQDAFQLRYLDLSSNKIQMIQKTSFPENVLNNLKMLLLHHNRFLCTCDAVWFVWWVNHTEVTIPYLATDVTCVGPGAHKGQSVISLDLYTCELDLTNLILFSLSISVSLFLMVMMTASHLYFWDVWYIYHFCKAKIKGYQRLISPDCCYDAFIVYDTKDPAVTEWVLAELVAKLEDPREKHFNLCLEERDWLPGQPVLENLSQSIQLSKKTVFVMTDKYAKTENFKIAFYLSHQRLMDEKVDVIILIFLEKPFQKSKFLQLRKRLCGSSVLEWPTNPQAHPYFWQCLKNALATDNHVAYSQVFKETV
Outline: (§1)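 Compound treatment: 30 min, RT, 0.05 nM–50 μM final. Agonist: TLR7 gardiquimod 7.5 μM; TLR8 R848 15.9 μM; TLR9 ODN2006 5 nM. Incubation 22 h, 37 °C, 5% CO2. Readout SEAP, HEK-Blue Detection.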

[2] = molecular target: T2, human TLR9 (Homo sapiens, UniProt Q9NR96); experiment: TLR9 inhibition reporter assay (HEK-Blue SEAP reporter); details: HEK-Blue cells overexpressing human TLR9; ODN2006 5 nM; 22 hour incubation
T2 construct: host or cells: HEK-Blue cells
T2 sequence (Q9NR96 26-1032): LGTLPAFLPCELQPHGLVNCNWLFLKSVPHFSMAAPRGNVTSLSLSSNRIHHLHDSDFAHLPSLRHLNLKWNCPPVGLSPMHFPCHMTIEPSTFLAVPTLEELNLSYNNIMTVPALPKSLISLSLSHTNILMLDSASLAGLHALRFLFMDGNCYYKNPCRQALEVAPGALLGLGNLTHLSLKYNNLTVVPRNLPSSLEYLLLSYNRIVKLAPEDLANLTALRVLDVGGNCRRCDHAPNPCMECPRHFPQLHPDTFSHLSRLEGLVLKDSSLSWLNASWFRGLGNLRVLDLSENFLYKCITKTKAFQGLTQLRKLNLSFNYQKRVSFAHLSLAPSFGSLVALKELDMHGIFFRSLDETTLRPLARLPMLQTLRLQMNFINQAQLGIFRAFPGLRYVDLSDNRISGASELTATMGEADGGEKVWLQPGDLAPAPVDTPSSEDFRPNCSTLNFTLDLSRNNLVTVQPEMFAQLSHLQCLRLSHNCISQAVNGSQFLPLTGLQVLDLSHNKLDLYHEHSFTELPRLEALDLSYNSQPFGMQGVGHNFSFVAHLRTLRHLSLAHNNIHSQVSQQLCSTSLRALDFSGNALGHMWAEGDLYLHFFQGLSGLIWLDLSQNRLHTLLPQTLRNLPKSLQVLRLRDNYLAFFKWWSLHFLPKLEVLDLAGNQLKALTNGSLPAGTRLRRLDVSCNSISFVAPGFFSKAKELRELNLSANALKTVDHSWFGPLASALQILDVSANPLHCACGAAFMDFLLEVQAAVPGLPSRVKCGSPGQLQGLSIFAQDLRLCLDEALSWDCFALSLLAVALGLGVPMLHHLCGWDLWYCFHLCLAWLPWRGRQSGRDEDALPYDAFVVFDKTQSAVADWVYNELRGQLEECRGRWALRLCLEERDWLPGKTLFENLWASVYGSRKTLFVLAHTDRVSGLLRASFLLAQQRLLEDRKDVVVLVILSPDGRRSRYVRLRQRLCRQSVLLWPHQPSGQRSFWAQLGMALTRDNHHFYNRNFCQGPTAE
Outline: as §1

[3] = molecular target: T3, human TLR8 (Homo sapiens, UniProt Q9NR97); experiment: TLR8 inhibition reporter assay (HEK-Blue SEAP reporter); details: HEK-Blue cells overexpressing human TLR8; R848 15.9 μM; 22 hour incubation
T3 construct: host or cells: HEK-Blue cells
T3 sequence (Q9NR97 27-1041): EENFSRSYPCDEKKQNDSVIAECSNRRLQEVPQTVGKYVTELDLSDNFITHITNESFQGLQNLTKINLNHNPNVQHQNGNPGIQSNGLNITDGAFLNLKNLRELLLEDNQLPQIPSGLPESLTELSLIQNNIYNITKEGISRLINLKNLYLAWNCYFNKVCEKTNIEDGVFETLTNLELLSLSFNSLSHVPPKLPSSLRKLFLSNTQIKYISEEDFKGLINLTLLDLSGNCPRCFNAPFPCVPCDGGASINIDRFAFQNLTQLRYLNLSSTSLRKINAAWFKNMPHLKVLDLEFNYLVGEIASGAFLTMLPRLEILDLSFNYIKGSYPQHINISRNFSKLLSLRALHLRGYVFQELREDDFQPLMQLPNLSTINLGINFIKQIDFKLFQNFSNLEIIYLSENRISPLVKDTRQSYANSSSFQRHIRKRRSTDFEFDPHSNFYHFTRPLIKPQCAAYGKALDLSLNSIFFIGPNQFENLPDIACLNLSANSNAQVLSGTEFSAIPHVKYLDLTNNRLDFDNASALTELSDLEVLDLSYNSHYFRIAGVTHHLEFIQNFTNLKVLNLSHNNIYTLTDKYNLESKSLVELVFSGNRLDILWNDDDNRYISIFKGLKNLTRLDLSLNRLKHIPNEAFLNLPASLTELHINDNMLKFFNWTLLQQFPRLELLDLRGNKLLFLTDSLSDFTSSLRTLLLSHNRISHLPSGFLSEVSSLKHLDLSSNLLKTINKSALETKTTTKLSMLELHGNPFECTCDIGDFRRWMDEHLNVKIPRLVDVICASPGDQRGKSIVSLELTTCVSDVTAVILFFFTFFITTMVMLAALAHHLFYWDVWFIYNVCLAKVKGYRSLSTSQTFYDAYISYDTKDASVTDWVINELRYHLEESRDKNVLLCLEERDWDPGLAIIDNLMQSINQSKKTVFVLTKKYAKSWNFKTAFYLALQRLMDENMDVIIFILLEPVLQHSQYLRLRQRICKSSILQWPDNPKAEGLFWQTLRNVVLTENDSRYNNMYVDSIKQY
Outline: as §1

pIC50 [1] | pIC50 [2] | pIC50 [3] | Compound
5.85 | 5.65 | 7.77 | CCNCCOc1ccc(Nc2ccc3[nH]c(-c4ccc(OC)c(OC)c4)c(C(C)C)c3c2)cc1 [Example 105, 2-(3,4-dimethoxyphenyl)-N-(4-(2-(ethylamino)ethoxy)phenyl)-3-isopropyl-1H-indol-5-amine]
5.85 | 5.85 | 7.46 | COc1ccc(-c2[nH]c3ccc(Nc4ccc(OCCN5CCCC5)cc4)cc3c2C(C)C)cc1OC [Example 106, 2-(3,4-dimethoxyphenyl)-3-isopropyl-N-(4-(2-(pyrrolidin-1-yl)ethoxy)phenyl)-1H-indol-5-amine]
7.51 | 5.46 | 7.26 | COc1ccc(-c2[nH]c3ccc(N4CCC(=O)N(CCN(C)C)CC4)cc3c2C(C)C)cc1OC [Example 107, 1-(2-(3,4-dimethoxyphenyl)-3-isopropyl-1H-indol-5-yl)-4-(2-(dimethylamino)ethyl)-1,4-diazepan-5-one]
7.64 | 5.60 | 8.00 | COc1ccc(-c2[nH]c3ccc(N4CCC(N(C)C)CC4)cc3c2C(C)C)cc1OC [Example 108, 1-(2-(3,4-dimethoxyphenyl)-3-isopropyl-1H-indol-5-yl)-N,N-dimethylpiperidin-4-amine]
7.55 | 4.82 | 6.68 | COc1ccc(-c2[nH]c3ccc(N4CCC(N)(CC#N)CC4)cc3c2C(C)C)cc1OC [Example 109, 2-(4-amino-1-(2-(3,4-dimethoxyphenyl)-3-isopropyl-1H-indol-5-yl)piperidin-4-yl)acetonitrile]
6.71 | 4.53 | 6.48 | COc1ccc(-c2[nH]c3ccc(N4CCC(C(C)(C)O)CC4)cc3c2C(C)C)cc1OC [Example 110, 2-(1-(2-(3,4-dimethoxyphenyl)-3-isopropyl-1H-indol-5-yl)piperidin-4-yl)propan-2-ol]
8.62 | 5.46 | 8.74 | Cc1c(-c2[nH]c3ccc(N4CCC(N(C)C)CC4)cc3c2C(C)C)cn(C)c(=O)c1Cl [Example 111, 3-chloro-5-(5-(4-(dimethylamino)piperidin-1-yl)-3-isopropyl-H-indol-2-yl)-1,4-dimethyl-114,215-pyridin-2-one]
7.21 | 5.21 | 8.03 | CNC1(CC#N)CCN(c2ccc3[nH]c(-c4ccc(OC)c(OC)c4)c(C(C)C)c3c2)CC1 [Example 112, 2-(1-(2-(3,4-dimethoxyphenyl)-3-isopropyl-1H-indol-5-yl)-4-(methylamino)piperidin-4-yl)acetonitrile]
5.92 | < 4.30 | 5.89 | COc1ccc(-c2[nH]c3ccc(N4CCCCC4c4ccncc4)cc3c2C(C)C)cc1OC (stereo not drawn) [Example 113, 2-(3,4-dimethoxyphenyl)-3-isopropyl-5-(2-(pyridin-4-yl)piperidin-1-yl)-1H-indole]
6.34 | 6.02 | 7.62 | COc1ccc(-c2[nH]c3ccc(N4CCC(OCCN(C)C)CC4)cc3c2C(C)C)cc1OC [Example 114, 2-((1-(2-(3,4-dimethoxyphenyl)-3-isopropyl-H-indol-5-yl)piperidin-4-yl)oxy)-N,N-dimethylethan-1-amine]
7.51 | 6.21 | 7.21 | COc1ccc(-c2[nH]c3ccc(N4CCC(CCN5CCCC5)CC4)cc3c2C(C)C)cc1OC [Example 115, 2-(3,4-dimethoxyphenyl)-3-isopropyl-5-(4-(2-(pyrrolidin-1-yl)ethyl)piperidin-1-yl)-1H-indole]
6.03 | 4.72 | 7.03 | COc1ccc(-c2[nH]c3ccc(N4CCC(N5CC(O)CC5=O)CC4)cc3c2C(C)C)cc1OC (stereo not drawn) [Example 116, 1-(1-(2-(3,4-dimethoxyphenyl)-3-isopropyl-1H-indol-5-yl)piperidin-4-yl)-4-hydroxypyrrolidin-2-one]
6.73 | 5.30 | 8.28 | COc1ccc(-c2[nH]c3ccc(N4CCC(C)(N5CCOCC5)CC4)cc3c2C(C)C)cc1OC [Example 117, 4-(1-(2-(3,4-dimethoxyphenyl)-3-isopropyl-H-indol-5-yl)-4-methylpiperidin-4-yl)morpholine]
5.95 | 5.75 | 6.49 | COc1ccc(-c2[nH]c3ccc(N4CCCC5CN(Cc6ccccc6)CC54)cc3c2C(C)C)cc1OC (stereo not drawn) [Example 118, 6-benzyl-1-(2-(3,4-dimethoxyphenyl)-3-isopropyl-1H-indol-5-yl)octahydro-1H-pyrrolo[3,4-b]pyridine]
5.85 | 5.64 | 7.62 | COc1ccc(-c2[nH]c3ccc(N4CCC(C5c6ccccc6CCN5C)CC4)cc3c2C(C)C)cc1OC (stereo not drawn) [Example 119, 1-(1-(2-(3,4-dimethoxyphenyl)-3-isopropyl-1H-indol-5-yl)piperidin-4-yl)-2-methyl-1,2,3,4-tetrahydroisoquinoline]
